Experimental data as given in patent US12234257B2, “Triterpene saponin derivative and use thereof” (KOREA INSTITUTE OF SCIENCE AND TECHNOLOGY, priority 2020, dated 2025).
Entries after “also recorded” stand apart in the source; their conditions may differ.

Legend:
Assay type in all cases: cell-based, human
[1] = tested on: SH-SY5Y cells; test: MTT assay to measure cell viability
Procedure: Cell viability was detected using an MTT assay kit (Z-Cytox). Briefly, the SH-SY5Y cells were seeded on a 96-well plate at a density of 2×10^4 cells/well with 100 μL of a culture medium. After 24 hours, the SH-SY5Y cells were treated with AKNS-2 and/or MPP^+ having desired concentrations to identify cytotoxicity of AKNS-2 and MPP^+. After 24 hours, 10 μL of the MTT reagent was added to each well of the 96-well plate including the cells. Absorbance was measured at 450 nm using a microplate spectrophotometer (BioTek, Vt., USA). […] The next day, absorbance was measured at 1 hour after adding the MTT reagent thereto.

[2] = tested on: autophagy-related protein markers (LC3-II, p62, p-AMPK, p-Erk, p-ULK, p-mTOR) in SH-SY5Y cells; test: Western blot of autophagy-related protein markers in SH-SY5Y cells
Procedure: (§1) Human neuroblastoma (SH-SY5Y) cells were purchased from the American Type Culture Collection (Manassas, Va., USA) and cultured in DMEM supplemented with 10% heat-inactivated FBS and 1% penicillin/streptomycin. The SH-SY5Y cells were cultured at 37° C. in a humid atmosphere containing 5% CO2. […] The SH-SY5Y cells were transfected with AMPK siRNA and then administered with AKNS-2 at 36 hours after siRNA transfection. […] After 24 hours from treatment with the samples, the SH-SY5Y cells were recovered and used for subsequent analysis. At 24 hours after drug treatment, the culture medium was removed from the 6-well plate, and the cells were gently washed once with cold saline. Subsequently, 1 mL of cold saline was added to each well, and cells attached to the bottom were floated by rubbing the bottom with a 1 mL pipette. The suspension was collected in a 1.5 mL tube and centrifuged at 4° C. at 13000×g for 5 minutes. After removing a supernatant, 50 μL of a RIPA lysis buffer including a protease inhibitor cocktail (Roche, Mannheim, Germany) and purchased from Cell Signaling Technology (Danvers, Mass., USA) was added to the cell pellet. After shaking the mixture at 4° C. for 30 minutes, the obtained cells were centrifuged at 4° C. at 13000×g for 20 minutes. A supernatant was collected therefrom, and a concentration of proteins was measured using a standard curve constructed using BSA by the Bradford method. Then, the supernatant was diluted with a loading buffer and heated at 99° C. for 5 minutes. Resultant cells were used in a subsequent western blot analysis. Protein markers contained in lysates of the SH-SY5Y cells and brain tissue of the mice (SNpc and ST) were measured by western blot analysis. Briefly, after determining a concentration, a protein sample (20 μg) was separated by 8%, 10%, or 15% sodium dodecyl sulfate-polyacrylamide gel electrophoresis (SDS-PAGE). Then, proteins separated on the gel were transferred to a polyvinylidene fluoride (PVDF) membrane for 45 minutes using a Trans-Blot Turbo Transfer System (Bio-Rad, USA). […] The membrane was further incubated with monoclonal primary antibodies derived from rabbits (anti-GAPDH, anti-AMPK, anti-p-AMPK, anti-ULK, anti-p-ULK555, anti-Erk, anti-p-Erk, anti-mTOR, anti-p-mTOR, anti-LC3B, anti-TH, and anti-α-synuclein antibodies). The primary antibodies were diluted in a blocking buffer at a ratio of 1:1000 and incubated overnight at 4° C. On the second day, the membrane was washed with TBST three times (10 minutes each) and incubated at room temperature in a horseradish peroxidase-conjugated goat anti-rabbit IgG secondary antibody (diluted in a blocking buffer at a ratio of 1:2000). After incubating in the secondary antibody for 1 hour, the membrane was washed for 30 minutes. The protein blots on the membrane were developed using an ECL detection kit and visualized using an LAS-4000 mini system (Fujifilm, Japan). The intensity of the protein blots was quantified using Multi Gauge software (Fujifilm, Japan).

[3] = tested on: LC3, p62, TH and α-synuclein in SH-SY5Y cells; test: Western blot of LC3, p62, TH and α-synuclein in MPP^+-treated SH-SY5Y cells (in vitro PD model)
Procedure: as §1

[4] = tested on: GFP-RFP-LC3-II puncta in SH-SY5Y cells; test: Tandem fluorescent protein quenching assay (RFP-GFP-LC3); details: transfected SH-SY5Y cells, AKNS-2 10 μM + Baf 100 nM
Procedure: SH-SY5Y cells were cultured in a 24-well plate at a density of 8×10^4 cells/well on a glass cover slip. Transfection was performed in accordance with guidelines of the autophagy tandem RFP-GFP-LC3B kit. After culturing the cells for 24 hours, the cells were treated with an LC3B reagent. After the transfected cells were incubated for 24 hours, 50 nM Wart or 100 nM Baf was administered thereto, and then AKNS-2 (10 μM) was added thereto. The cells were immobilized with 4% paraformaldehyde and permeabilized with 0.1% Triton X100. Nuclei thereof were stained with 4,6-diamidino-2-phenylindole (DAPI, 25 μg/mL). Fluorescent signals were detected using a confocal microscope (Leica, Solms, Germany).

[5] = 10 μM U0126 30 minutes before AKNS-2 (5 μM and 10 μM)
[6] = 3-MA 5 mM 30 minutes before AKNS-2 10 μM

## C[n+]1ccc(-c2ccccc2)cc1.[I-] [MPP^+, 1-methyl-4-phenylpyridinium (MPP^+) iodide, reference compound]
[1]; MPP^+ alone, 2 mM
  cell viability (MTT): significantly decreased cell viability

## N#CC(=C(/N)Sc1ccccc1N)/C(C#N)=C(\N)Sc1ccccc1N [Compound U0126, reference compound]
[2]; [5]
  AKNS-2-induced LC3-II expression in presence of U0126: a significant decrease was observed in the expression of LC3-II; also recorded: blocked the effects of AKNS-2 (5 μM and 10 μM) on increasing the expression of LC3-II
  AKNS-2-inhibited p-mTOR expression in presence of U0126: considerably restored
[2]; 10 μM U0126 + AKNS-2 10 μM
  AKNS-2-increased p-ULK expression in presence of U0126: canceled out the effects of AKNS-2 (10 μM) on an increase in expression of p-ULK
[1]; 10 μM U0126 + AKNS-2 (5 μM and 10 μM) + 2 mM MPP^+
  protective effect of AKNS-2 on cell viability in presence of U0126: cancels out protective effects of AKNS-2 on cell viability; also recorded: such enhancement was canceled out
[3]; 10 μM U0126 + AKNS-2 + 2 mM MPP^+
  AKNS-2 effect on α-synuclein in presence of U0126: the protective effects were blocked
[3]; 10 μM U0126 before AKNS-2 and 2 mM MPP^+
  AKNS-2 effect on TH expression in presence of U0126: the effects of AKNS-2 on increasing the expression of TH were inhibited

## Cn1cnc(N)c2ncnc1-2 [Compound 3-MA, 3-methyladenine, reference compound]
[2]; [6]
  AKNS-2-decreased p62 expression in presence of 3-MA: increases p62 expression; also recorded: remarkably blocked the inhibitory effects of AKNS-2 on the expression level of p62
  AKNS-2-up-regulated LC3-II expression in presence of 3-MA: decreases LC3-II expression; also recorded: the increased expression was significantly decreased
[3]; 3-MA + AKNS-2 + MPP^+
  AKNS-2 effect on TH expression in presence of 3-MA: advantageous effects of AKNS-2 were canceled out
[3]; 3-MA vs group co-administered with AKNS-2 and MPP^+
  expression of LC3-II with 3-MA: significantly inhibited the expression of LC3-II

## CO/C1=C\C(C)=C\[C@@H](C)[C@@H](O)[C@@H](C)C/C(C)=C/C=C/[C@H](OC)[C@@H]([C@@H](C)[C@@H](O)[C@H](C)[C@@]2(O)C[C@@H](O)[C@H](C)[C@@H](C(C)C)O2)OC1=O [Baf, bafilomycin A1]
[4]
  AKNS-2-enhanced accumulation of LC3-II puncta with bafilomycin A1: increased green fluorescence and decreased red fluorescence
[4]; listed as bafilomycin A1
  AKNS-2-enhanced accumulation of LC3-II puncta with bafilomycin A1: AKNS-2-induced autophagy is inhibited
